# Experimental data published in publication PMC11984586, “A novel spider toxin as a selective antagonist of the Kv1 subfamily of voltage-gated potassium channels through gating modulation” (The Journal of Biological Chemistry, 2025).
# Bridge positions count the residues as written; N and C are the ends. Peptide text beside a SMILES is read from it.
# Legend:
# Kv1.7/A256T = target: T1, Kv1.7/A256T (Homo sapiens, UniProt Q96RP8, A256T); assay: Whole-cell patch clamp, Kv1.7 point mutant; type: cell-based
# T1 construct: expressed in transfected cells; host or cells: CHO-K1
# Excerpt: This observation prompted further exploration of the potential function of the homologous residue in the Kv1.7 channel, where the corresponding site is occupied by an alanine.
# (§1) The cDNA of hKv1.1, hKv1.2, hKv1.3, rKv1.4, hKv1.5, mKv1.6, and hKv1.7 were subcloned into mammalian expression vectors pcDNA3.1 or pCMV-blank vectors, as well as other plasmids described previously ([35]). Channel mutants were generated by site-directed mutations. Briefly, the parental channel plasmid was amplified using a pair of oppositely directed primers harboring the designed mutation site, with KOD Fx (TOYOBO Co, Ltd). […]
# (§2) CHO-K1 cells were selected for expressing Kv channels due to their lack of endogenous Kv channels, while HEK293 or ND7/23 cells were used for Nav and Cav channel expression. […] After 4 to 6 h transfection, cells were seeded onto poly-lysine–coated coverslips, and 24 to 36 h later, transfected cells were ready for patch-clamp analysis. […]
# (§3) For Kv current recordings, the bath solution contained (in mM) the following: 140 NaCl, 5 KCl, 1 MgCl2, 2 CaCl2, 10 glucose, and 10 Hepes (pH 7.3, adjusted with NaOH), and the pipette solution contained (in mM) the following: 140 KCl, 2.5 MgCl2, 11 EGTA, and 10 Hepes (pH 7.3, adjusted with KOH). […] The steady-state fast inactivation of Kv1.3 was measured using a two-pulses protocol. […]
# mKv1.6 = target: T2, mKv1.6 (Mus musculus, UniProt Q61923); assay: Whole-cell patch clamp, Kv1.6 ionic current in CHO-K1 cells; type: cell-based; settings: +30 mV, 500 ms, holding −80 mV, mean ± SD, n = 4–7, read-out: IC50, inhibition of Kv1.6 current (full inhibition)
# T2 construct: expressed in transfected cells; host or cells: CHO-K1
# Experimental: as §1, with “Ltd). The resulting PCR mix was treated with FastDigest DpnI (Thermo Fisher Scientific) to remove the methylated template. Ten microliters of the digested product was then used to transform 100 μl E. coli DH5α competent cells.” for “Ltd).”
# as §2, §3
# Kv1.4/Y416A = assay: Whole-cell patch clamp, Tyr-to-Ala mutant homologous to Kv1.3 Y339; type: cell-based, rat; settings: 10 μM MrVIII, +30 mV, 500 ms, holding −80 mV, mean ± SD, n = 4–6
# Excerpt: Building on the identification of key amino acid residues in Kv1.3 channel that interact with MrVIII through alanine-scanning mutagenesis, we extended our analysis to explore these residues across other Kv1 subfamily channels. […] However, MrVIII retained substantial inhibitory potency on Kv1.2/Y266A mutant, albeit without fully blocking the channel current. […] The profound reduction in MrVIII's effect across homologous mutants supports the idea that it binds to a conserved region.
# as §1, with “Ltd). The resulting PCR mix was treated with FastDigest DpnI (Thermo Fisher Scientific) to remove the methylated template.” for “Ltd).”
# as §2
# T1 sequence (Q96RP8 whole entry A256T): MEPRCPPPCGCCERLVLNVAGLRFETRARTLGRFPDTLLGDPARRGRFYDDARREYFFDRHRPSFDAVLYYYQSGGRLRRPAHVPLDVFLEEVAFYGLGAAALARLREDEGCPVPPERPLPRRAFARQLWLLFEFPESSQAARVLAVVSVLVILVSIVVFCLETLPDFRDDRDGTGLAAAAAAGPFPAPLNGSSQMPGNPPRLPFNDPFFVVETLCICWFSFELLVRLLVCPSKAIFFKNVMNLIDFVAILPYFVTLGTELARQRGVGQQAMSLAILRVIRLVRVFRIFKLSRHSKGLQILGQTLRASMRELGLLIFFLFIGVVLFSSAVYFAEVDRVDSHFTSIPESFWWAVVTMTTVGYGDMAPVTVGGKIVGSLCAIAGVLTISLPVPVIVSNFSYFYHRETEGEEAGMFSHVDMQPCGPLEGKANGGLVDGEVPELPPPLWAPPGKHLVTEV
# T2 sequence (Q61923 whole entry): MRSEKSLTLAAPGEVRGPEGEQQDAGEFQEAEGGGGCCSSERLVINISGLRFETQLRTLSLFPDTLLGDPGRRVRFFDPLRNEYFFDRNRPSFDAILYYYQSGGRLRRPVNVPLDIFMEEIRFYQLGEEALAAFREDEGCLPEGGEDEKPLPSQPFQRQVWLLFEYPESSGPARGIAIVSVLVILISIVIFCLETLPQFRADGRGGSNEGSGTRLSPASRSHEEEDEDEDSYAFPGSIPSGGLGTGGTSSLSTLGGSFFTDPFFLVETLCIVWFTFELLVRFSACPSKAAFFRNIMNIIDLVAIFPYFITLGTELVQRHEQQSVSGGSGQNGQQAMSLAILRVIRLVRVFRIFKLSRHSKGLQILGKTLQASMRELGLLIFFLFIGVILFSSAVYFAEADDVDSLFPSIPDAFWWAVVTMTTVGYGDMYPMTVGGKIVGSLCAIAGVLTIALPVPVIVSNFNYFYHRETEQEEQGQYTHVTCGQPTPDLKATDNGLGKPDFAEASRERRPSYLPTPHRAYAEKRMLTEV
compound,measurement,setting,value
"CC[C@H](C)[C@@H]1NC(=O)[C@H](Cc2ccc(O)cc2)NC(=O)[C@H](CCC(N)=O)NC(=O)[C@@H]2CCCN2C(=O)[C@@H]2CSSC[C@H](NC(=O)[C@H](C)NC(=O)[C@H](CO)NC(=O)[C@H](CCC(=O)O)NC(=O)[C@H](CCC(=O)O)NC(=O)[C@@H](N)[C@@H](C)O)C(=O)NCC(=O)NCC(=O)N[C@@H](Cc3ccccc3)C(=O)N[C@@H](CC(N)=O)C(=O)N[C@@H](C)C(=O)N[C@@H](CCCNC(=N)N)C(=O)N[C@H]3CSSC[C@H](NC1=O)C(=O)N[C@@H](CCCCN)C(=O)NCC(=O)N[C@@H](Cc1c[nH]c4ccccc14)C(=O)N[C@@H](CCCNC(=N)N)C(=O)N[C@@H]([C@@H](C)O)C(=O)N[C@@H](CCCCN)C(=O)N[C@@H](CCCNC(=N)N)C(=O)N[C@H](C(=O)N[C@@H](CC(C)C)C(=O)N[C@@H](CC(N)=O)C(=O)N1CCC[C@H]1C(=O)O)CSSC[C@H](NC(=O)[C@H](CCCCN)NC(=O)[C@H](Cc1c[nH]cn1)NC(=O)[C@H](CC(C)C)NC(=O)[C@@H]1CCCN1C3=O)C(=O)N2 [MrVIII] (H-TEESACGGFNARCPLHKCCPQYICKGWRTKRCLNP-OH; disulfide 6-19, 13-24, 18-32; N-terminus and C-terminus assumed)",IC50,"Kv1.7/A256T; +30 mV, mean ± SD, n = 6, SD, read-out: IC50, Kv1.7/A256T current (full inhibition)",138 ± 50.3 nM
same,potency on Kv1.7/A256T weaker than on the Kv1.3 channel,Kv1.7/A256T; ratio of IC50 values,approximately 28 fold
same,IC50,mKv1.6,13.4 ± 6.7 nM
same,inhibition of Kv1.4/Y416A current,Kv1.4/Y416A,63.5 ± 18.4%
